# From patent publication US20070231897A1, “Induction of Insulin Secreting Cell” (KYOTO UNIVERSITY, priority 2004, published 2007)
# Columns and labels:
# pancreatic acinar cells [1] = experiment: Effect of growth factors on insulin-positive cell induction in main culture of pancreatic acinar cells; type: cell-based, mouse; settings: day 7 of culture, EGF 20 ng/ml, HGF, FGF7 and FGF10 10 ng/ml, GLP-1 30 ng/ml; for proportion of insulin-positive cells: rank among growth factors (FIG. 8B)
# Description: Eight-week old male mice (C57B1/6Cr Slc)(Japan SLC, Inc.: Hamamatsu, Japan) were anesthetized with 50 mg/kg of Nembtal (Dainippon Pharma Co., Ltd.: Osaka, Japan) and subjected to laparotomy. The choledoch duct was ligated near the position where it opens to the duodenum. Using a 27G winged needle (Terumo Corporation: Tokyo, Japan), 2-3 ml of Hank's buffer containing 0.05% collagenase P (Roche: Basel, Switzerland) and 10% fetal bovine serum was infused from the liver side. The pancreas, now swollen, was extracted and digested in 5 ml of Hank's buffer per pancreas for 18 minutes at 37° C. The digested pancreas then was made to pass through a 14G indwelling needle in both directions twice to disperse the pancreatic cells, which washed well with Hank's buffer containing 0.1% bovine serum albumin (Sigma: Saint Louis, Mo., USA). The pancreatic cells thus obtained were suspended in a mixed solution (solution A) consisting of 8.3% Ficoll 400 (Amersham Bioscience: Uppsala, Sweden) and 16.7% Conray 400 (Daiichi Pharmaceutical, Tokyo, Japan), and after a 87.5%-diluted solution of solution A and then a 50%-diluted solution of solution A were placed on it in the order, centrifuged (2,000 rpm, 10 min). Pancreatic acinar cells condensed in the spun down, lowest fraction were collected, and to them was added a sterilized 0.1 mg/ml solution of dithizone (1,5-diphenylthiocarbazone) (Nacalai Tesque, Inc.: Kyoto, Japan) and stained for 15 minutes at 37° C. in order to remove contaminating mature B-cells. Mature B-cells are stained red with dithizone, which is a chelating agent for zinc, for high concentration of insulin occurs in mature B-cells in the form of a hexamer via zinc (Latif et al., Transplantation, 45:827(1988)). By removing red-stained mature B-cells under a stereomicroscope, a fraction containing highly concentrated pancreatic acinar cells were obtained. […]
# pancreatic acinar cells [2] = experiment: Correlation between EGF concentration and induction of colonies containing insulin-positive cells; type: cell-based, mouse; settings: 0.5% fetal bovine serum (FIG. 9)
# Description: The recovered cells were suspended in a nutrition medium (e.g., RPMI-1640) containing 0.5% fetal bovine serum (Sigma) and 20 ng/ml epidermal growth factor (EGF) (R&D Systems: Minneapolis, Minn., USA), and inoculated in cell culture dishes which were less adhesive for cells (Nalge Nunc: Rochester, N.Y., USA) and cultured in an incubator set at 37° C., 5% CO2. The pancreatic acinar cells, at early stages of culture, formed cell clusters having smooth boundaries consisting of congregated cells and, and kept themselves floating (FIG. 1A), and, at around day 3, adhere to the bottom of the dish and started to extend on it. After about 7 days, they formed relatively small cell aggregates (colonies) consisting of several dozen to several hundred cells (FIG. 1B). The cell density upon inoculation, which ranged from 1- to 10-fold dilution of that in pre-culture, had no influence on the form of the colonies observed.
# In accordance with the method described in Example 1, except that the concentration of fetal bovine serum was fixed at 0.5% and EGF was used as the growth factor at a concentration of 0, 2, 20 or 200 ng/ml, main culture of pancreatic acinar cells were performed to assess the effect of EGF on induction of aimed cells (cells forming colonies containing insulin-positive cells as shown in FIG. 1B).
Substance,total cell count (growth of the cells) (pancreatic acinar cells [1]; rank among growth factors (FIG. 8A)),proportion of insulin-positive cells (pancreatic acinar cells [1]),effect on induction of aimed cells (cells forming colonies containing insulin-positive cells) (pancreatic acinar cells [2]; EGF 20 ng/ml),effect on induction of aimed cells (cells forming colonies containing insulin-positive cells) (pancreatic acinar cells [2]; EGF 200 ng/ml)
"epidermal growth factor [EGF, epidermal growth factor (R&D Systems), growth factor added to the culture medium]",most effective,most effective,remarkable effect,remarkable effect
hepatocyte growth factor [HGF],–,this was followed by FGF10 and HGF,–,–
